The subject of series [1] is Macrophage cell line. Kind of series: Induction of IL-8 production in human PBMC-differentiated macrophages after 24 hrs by ELISA. The format is cell-based. On the technique in general: An ELISA detects its analyte on a solid surface through an enzyme-linked reagent.
Series [2] has as its system Klebsiella pneumoniae. Put plainly: Potentiation of methicillin-induced antibacterial activity against Klebsiella pneumoniae ATCC 13883 assessed as minimum modulatory concentration up to 32 uM measured after 16 hrs in presence of MIC/4 methicillin. The class given is functional. Particulars: ATCC 13883, 16 h, read-out: MEC.
Series [3] deals with Escherichia coli. Put plainly: Potentiation of erythromycin-induced antibacterial activity against Escherichia coli ATCC 43894 assessed as minimum modulatory concentration up to 32 uM measured after 16 hrs in presence of MIC/4 erythromycin. The class given is functional. To be noted: ATCC 43894, 16 h, read-out: MEC.
Series [4] deals with Klebsiella pneumoniae. Put plainly: Potentiation of geneticin-induced antibacterial activity against Klebsiella pneumoniae ATCC 13883 assessed as minimum modulatory concentration up to 32 uM measured after 16 hrs in presence of MIC/4 geneticin. Particulars: ATCC 13883, 16 h, read-out: MEC. The format is functional.
Series [5] deals with Streptococcus pyogenes. Kind of series: Potentiation of tetracycline-induced antibacterial activity against Streptococcus pyogenes ATCC 14289 assessed as minimum modulatory concentration up to 32 uM measured after 16 hrs in presence of MIC/4 tetracycline. The format is functional. To be noted: ATCC 14289, 16 h, read-out: MEC.
Series [6] concerns Macrophage cell line. Put plainly: Antiinflammatory activity in human PBMC-differentiated macrophages assessed as lowest concentration required to show at least 25% inhibition of LPS-induced IL-8 production measured after 24 hrs by ELISA. The format is functional.
For series [7], the system named is Staphylococcus aureus. Put plainly: Toxicity in Staphylococcus aureus ATCC 33592 up to 32 uM measured after 16 hrs. The format is organism-based.
The test system of series [8] is Enterococcus faecium. Put plainly: Potentiation of tetracycline-induced antibacterial activity against Enterococcus faecium ATCC 700221 assessed as minimum modulatory concentration up to 32 uM measured after 16 hrs in presence of MIC/4 tetracycline. The format is functional. To be noted: ATCC 700221, 16 h, read-out: MEC.
For series [9], the system named is Staphylococcus aureus. Kind of series: Potentiation of tetracycline-induced antibacterial activity against Staphylococcus aureus ATCC 33592 assessed as minimum modulatory concentration up to 32 uM measured after 16 hrs in presence of MIC/4 tetracycline. The format is functional. Particulars: ATCC 33592, 16 h, read-out: MEC.
Series [10] relates to Macrophage cell line. Kind of series: Antiinflammatory activity in human PBMC-differentiated macrophages assessed as lowest concentration required to show at least 25% inhibition of LPS-induced TNFalpha production measured after 24 hrs by ELISA. The format is functional.
Series [11] deals with Streptococcus pyogenes. Put plainly: Toxicity in Streptococcus pyogenes ATCC 14289 up to 32 uM measured after 16 hrs. The class given is organism-based.
Series [12] deals with Macrophage cell line. Kind of series: Antiinflammatory activity in human PBMC-differentiated macrophages assessed as lowest concentration required to show at least 25% inhibition of LPS-induced IL-1beta production measured after 24 hrs by ELISA. The class given is functional.
In series [13] the test system is Staphylococcus aureus. Put plainly: Potentiation of methicillin-induced antibacterial activity against Staphylococcus aureus ATCC 33592 assessed as minimum modulatory concentration up to 32 uM measured after 16 hrs in presence of MIC/4 methicillin. The format is functional. To be noted: ATCC 33592, 16 h, read-out: MEC.
Series [14] concerns Macrophage cell line. Put plainly: Antiinflammatory activity in human PBMC-differentiated macrophages assessed as inhibition of LPS-induced IL-1beta production at 0.01 to 10 uM measured after 24 hrs by ELISA. The format is functional, cell-based.
Series [15] concerns Macrophage cell line. Put plainly: Antiinflammatory activity in human PBMC-differentiated macrophages assessed as inhibition of LPS-induced TNFalpha production at 0.01 to 10 uM measured after 24 hrs by ELISA. The class given is functional, cell-based.

The source made the active and inactive calls. The calls are words filed in the database; no cut-off is given here. Bounds are passed on as bounds.

Turning to `O=C(O)c1cc(O)cnc1-c1ccccc1`, the Activity result in series [1] was “Non-Toxic”; in series [6], 10 µM; in [7], “Non-Toxic”; in series [10], 10 µM; in [11], “Non-Toxic”; in [12], 10 µM. For the same molecule, the minimal effective concentration in series [2] was greater than 32 µM; in series [3] it was greater than 32 µM; in [4], greater than 32 µM; in series [5], 2 µM; in series [8] it was 4 µM; in [9] it was 1 µM. In addition, the minimal effective concentration in series [13] turned out to be 8 µM.

Consider `C[n+]1ccc(C(=O)[O-])c(O)c1Cc1ccccc1`, for which the Activity entry in series [1], in [7] and in series [11] was “Non-Toxic” in each case. In addition, the minimal effective concentration in series [2], in series [3], in series [4], in series [5], in series [8] and in series [9] was greater than 32 µM each time. Moreover, the minimal effective concentration in series [13] was greater than 32 µM. The inhibition result in series [14] and in series [15] was “inactive” each time.

`Cc1nc(-c2ccccc2)c(O)cc1C(=O)O`: the Activity result in series [1] is “Non-Toxic”; in [7], “Non-Toxic”; in series [10], 10 µM; in series [11], “Non-Toxic”; in [12] it was 10 µM. In addition, the minimal effective concentration is greater than 32 µM in series [2]; greater than 32 µM in series [3]; greater than 32 µM in [4]; 4 µM in series [5]; 1 µM in [8]; 4 µM in series [9]. In addition, the minimal effective concentration in [13] worked out at 0.5 µM.

Consider `COc1cccc(-c2cc(C(=O)O)c(O)cn2)c1`, for which the Activity entry in series [1], in series [7] and in series [11] was “Non-Toxic” each time. The minimal effective concentration in [2], in series [3], in series [4], in series [5], in series [8] and in series [9] was greater than 32 µM each time. In addition, the minimal effective concentration in series [13] was 16 µM. Besides, the inhibition entry in [14] and in [15] was “inactive” throughout.

For `C[n+]1cc(O)c(C(=O)[O-])cc1-c1ccccc1`, the Activity result in series [1], in series [7] and in [11] was “Non-Toxic” in each case. The minimal effective concentration in series [2], in series [3], in [4], in series [5], in [8] and in [9] was greater than 32 µM each time. For the same molecule, in series [13], the minimal effective concentration is greater than 32 µM. The inhibition result in series [14] and in [15] was “inactive” throughout.

Turning to `O=C(O)c1ccnc(Cc2ccccc2)c1O`, the Activity entry in series [1], in series [7] and in [11] was “Non-Toxic” throughout. Moreover, the minimal effective concentration in series [2], in [3], in series [4], in series [5], in series [8] and in series [9] was greater than 32 µM each time. Also, the minimal effective concentration in [13] is greater than 32 µM. Further, the inhibition result in series [14] and in series [15] was “inactive” each time.

In the case of `O=C(O)c1cc(O)c(-c2ccccc2)nc1-c1ccccc1`, the Activity result was “Non-Toxic” in series [1]; 10 µM in series [6]; “Non-Toxic” in series [7]; 10 µM in series [10]; “Non-Toxic” in series [11]; 10 µM in series [12]. Besides, the minimal effective concentration is greater than 32 µM in series [2]; greater than 32 µM in series [3]; greater than 32 µM in [4]; 4 µM in [5]; 2 µM in series [8]; 8 µM in [9]. In addition, in [13], the minimal effective concentration stood at 4 µM.

For the molecule `Cc1nc(-c2ccccc2)cc(C(=O)O)c1O`, the Activity entry in series [1], in series [7] and in series [11] was “Non-Toxic” in each case. Moreover, the minimal effective concentration in [2] is greater than 32 µM; in series [3], greater than 32 µM; in series [4] it was greater than 32 µM; in [5] it was greater than 32 µM; in series [8], greater than 32 µM; in series [9] it was 16 µM. In addition, the minimal effective concentration in series [13] turned out to be 16 µM. Moreover, the inhibition entry in series [14] and in [15] was “inactive” each time.

Take `O=C(O)c1cc(-c2ccccc2)ncc1O`: the Activity entry in series [1], in [7] and in series [11] was “Non-Toxic” in each case. For the same molecule, the minimal effective concentration in series [2], in series [3], in series [4], in series [5], in series [8] and in series [9] was greater than 32 µM each time. Also, in series [13], the minimal effective concentration came to 16 µM. For the same molecule, the inhibition result in series [14] and in series [15] was “inactive” in each case.

Take `Cc1cc(C(=O)O)c(O)c(Cc2ccccc2)n1`: the Activity result in series [1], in [7] and in series [11] was “Non-Toxic” in each case. Further, the minimal effective concentration in series [2] was greater than 32 µM; in series [3], greater than 32 µM; in series [4], greater than 32 µM; in series [5], 16 µM; in series [8] it was greater than 32 µM; in [9] it was greater than 32 µM. Moreover, the minimal effective concentration in series [13] is greater than 32 µM. Also, the inhibition entry in series [14] and in series [15] was “inactive” throughout.

In the case of `O=C(O)c1cnc(-c2ccccc2)c(O)c1`, the Activity entry in series [1], in series [7] and in [11] was “Non-Toxic” in each case. The minimal effective concentration is greater than 32 µM in series [2]; greater than 32 µM in series [3]; greater than 32 µM in series [4]; 4 µM in series [5]; 1 µM in [8]; 0.25 µM in series [9]. For the same molecule, the minimal effective concentration in series [13] turned out to be 0.5 µM. In addition, the inhibition result in series [14] and in series [15] was “inactive” throughout.

For `COc1cccc(-c2cc(C(=O)[O-])c(O)c[n+]2C)c1`, the Activity entry in series [1], in series [7] and in series [11] was “Non-Toxic” throughout. The minimal effective concentration in series [2], in [3], in series [4], in [5], in series [8] and in series [9] was greater than 32 µM each time. Further, the minimal effective concentration in series [13] is greater than 32 µM. The inhibition result in series [14] and in series [15] was “inactive” each time.

Regarding `O=C(O)c1ccnc(-c2ccccc2)c1O`, the Activity result in series [1] is “Non-Toxic”; in series [6] it was 10 µM; in series [7] it was “Non-Toxic”; in series [10], 10 µM; in [11] it was “Non-Toxic”; in [12] it was 10 µM. Also, the minimal effective concentration in [2] is greater than 32 µM; in [3], greater than 32 µM; in series [4], greater than 32 µM; in series [5], 1 µM; in series [8] it was 2 µM; in [9] it was 2 µM. Moreover, the minimal effective concentration in series [13] was found to be 0.25 µM.

The values above are taken from ChEMBL document CHEMBL4257522, “Synthesis and preliminary anti-inflammatory and anti-bacterial evaluation of some diflunisal aza-analogs” (Medchemcomm, 2018).
